# Measurements: patent US11771705B2, “Adjuvant therapy for use in prostate cancer treatment” (priority 2017, dated 2023)
# Read-outs that look alike come from different tables or passages of the source.
# Tests used:
# [1] = tested on: adenocarcinoma of the prostate; test: Estetrol in prostate cancer patients treated with ADT, randomized placebo controlled (Example 3); assay type: in vivo, male patients; conditions: GnRH agonist plus 40 mg estetrol per day oral, 24 weeks
# Description: Male patients who have histologically confirmed adenocarcinoma of the prostate and who are qualifying for treatment with androgen deprivation therapy (ADT: GnRH agonist) are included. The study is randomized placebo controlled.
# Randomisation takes place after a patient is found to be eligible at the baseline visit. Subjects receive the study medication for a period of 24 weeks in total.
# Subjects receive blinded study medication (oral administration) as follows: • Investigational product: GnRH agonist plus 40 mg estetrol (E4) per day; • Placebo: GnRH agonist plus placebo.
# Medication should be taken in the morning between 8:00-10:00 AM. All patients concomitantly receive a prophylactic dose of dabigatran (220 mg once daily) or another anticoagulant.
# A total of 30 patients is being dosed as follows: 20 patient in the estetrol group and 10 patients in the reference therapy group (placebo).
# The primary objective is to assess the additional effects of E4 on total T and free T. Secondary objectives include the assessment of the effects of E4 on SHBG, PSA response and lipids and lipoproteins. […]
# [2] = 20 mg or 40 mg daily, cited from earlier work
# [3] = assay type: in vivo, healthy men
# Experimental: A phase I, double-blind, randomised, placebo-controlled, multiple dose study to evaluate the safety, pharmacokinetics and pharmacodynamics of multiple dosages of estetrol in healthy men.
# Male participants aged between 40 and 70 years were allocated to one of the following groups: • Group 1: 20 mg E4 (estetrol) or placebo; • Group 2: 40 mg E4 (estetrol) or placebo; • Group 3: 60 mg E4 (estetrol) or placebo.
# A total of 15 subjects were assigned to each dose group: 10 subjects were randomised to receive the active treatment (E4), 5 subjects were randomised to receive placebo treatment. In total […] participated in this study.
# Dosing began with Group 1. The other groups were dosed consecutively. Dose escalation to the next E4 dose group proceeded based on reported adverse events (AEs), SHBG levels, lipids and haemostatic parameters. The decision to continue with the next higher E4 dose level was made by the Investigator, an independent expert and the Sponsor.
# E4 was supplied as tablets and taken orally every morning between 8:00-10:00 am, for 28 days. The total duration of the study, including screening was 84 days for each subject (Screening from Day −28 till Day −1, Clinical part from Day 1 till Day 56).
# There were two primary outcome parameters in this study. First primary parameter was the safety evaluation of E4. Safety variables included vital signs, routine laboratory tests, physical examination, ECG measurement and monitoring of (S)AEs.
# Second primary parameter was the hormones related to prostate function. FSH, LH, E2, total testosterone, free testosterone and sex hormone-binding globulin (SHBG) were measured.
# Secondary parameters included other pharmacodynamic and pharmacokinetic parameters. The pharmacodynamic parameters which were assessed are the following: • Haemostatic factors: (extrinsic) APC-resistance, prothrombin fragment 1+2, free tissue factor pathway inhibitor (TFPI), antithrombin activity, protein S activity, D-dimer, angiotensinogen; • Lipids and lipoproteins: total cholesterol, triglycerides, HDL-cholesterol, LDL-cholesterol and lipoprotein(a) (Lp(a)); • Carbohydrates: fasting serum glucose; • Bone turnover markers: osteocalcin, type I collagen telopeptide (CTX-1) and parathyroid hormone (PTH); • Prostate-specific antigen (PSA).
# Pharmacokinetics were evaluated by measuring E4 trough levels on Day 2, 7, 14 and 28. Furthermore, on Day 28 before and at several time points after dosing E4 concentrations were measured.
# [4] = tested on: adenocarcinoma of the prostate; test: Estetrol on testosterone suppression and quality of life in prostate cancer patients treated with ADT (Example 4); assay type: in vivo, male patients; conditions: GnRH agonist plus 40 mg estetrol monohydrate p.o. per day, 24 weeks
# Experimental: Male patients who have histologically confirmed adenocarcinoma of the prostate and who are qualifying for treatment with androgen deprivation therapy (ADT: GnRH agonist) participate in randomized placebo controlled study. Randomisation takes place after a patient is found to be eligible at the baseline visit. Subjects receive the study medication for a period of 24 weeks in total. Subjects receive blinded study medication: • Investigational product: GnRH agonist plus 40 mg estetrol monohydrate (E4) p.o. per day; • Placebo: GnRH agonist plus placebo. Selection of the GnRH agonist is left to the doctors treating the individual patients. Medication is taken in the morning between 8:00-10:00 AM. A total of 60 patients is dosed as follows: 40 patient in the estetrol group and 20 patients in the reference therapy group (placebo). Effects of medication on total T, free T, SHBG, hot flushes, PSA response, endocrine parameters, adrenal androgens and the lipid profile are assessed. Further assessed are the effects on health related quality of life (using the Functional Assessment of Cancer Therapy Prostate (FACT-P) questionnaire and a small questionnaire on the presence and absence of endocrine related symptoms (Q-man questionnaire)) and effects on bone turnover (bone markers).
# [5] = assay type: in vivo, male patients; conditions: average of Day 7 and Day 14
# Experimental: For each group dosed at 2, 10, 20, 40 and 60 mg estetrol daily (oral administration), 7 to 10 male patients were tested for their plasma content in estetrol at Day 7 and at Day 14. For each dose group, the average trough level of all patients across both days was calculated.
# [6] = Day 28 vs Day 1, 20, 40, 60 mg daily
smiles,measurement,setting,value
C[C@]12CC[C@@H]3c4ccc(O)cc4CC[C@H]3[C@@H]1[C@@H](O)[C@@H](O)[C@@H]2O [estetrol],Efficacy and quality of life of ADT treatment for prostate cancer,[1],effective therapy to improve efficacy and quality of life
same,Libido decreased during treatment,[2]; both cohorts,8 of 20
same,Nipple tenderness reported,[2]; both cohorts,7 of 20
same,Body weight and safety parameters,[2]; healthy men 40-70 years,did not change
same,Estradiol level,[2]; healthy men 40-70 years,decreased
same,FSH level,[2]; healthy men 40-70 years,decreased
same,Free testosterone level,[2]; healthy men 40-70 years,decreased
same,LH levels,[2]; healthy men 40-70 years,did not change
same,SHBG levels,[2]; healthy men 40-70 years,increased
same,Total testosterone level,[2]; healthy men 40-70 years,decreased
same,HDL Cholesterol,[3]; [6],small increase
same,Lowering effect on LDL Cholesterol,[3]; [6],about 20%
same,TG (triglycerides),[3]; [6],no changes
same,Free testosterone level,"[3]; Day 28 vs Day 1, 20, 40, 60 mg daily (FIG. 1A)",decreased
same,Total testosterone level,"[3]; Day 28 vs Day 1, 20, 40, 60 mg daily (FIG. 1B)",decreased
same,SHBG level,"[3]; Day 28 vs Day 1, 20, 40, 60 mg daily (FIG. 1C)",increase
same,LH level,"[3]; Day 28 vs Day 1, 20, 40, 60 mg daily (FIG. 1D)",not much change
same,FSH levels,"[3]; Day 28 vs Day 1, 20, 40, 60 mg daily (FIG. 1E)",decreased
same,"Effects on bone (osteocalcin, CTX-1)","[3]; Day 28 vs Day 1, 20, 40, 60 mg daily (FIGS. 2I, 2J)",beneficial estrogenic effects
same,"Changes in vital signs, ECG, physical examination and body weight","[3]; daily oral dose of 20 mg, 40 mg or 60 mg for 28 days",No clinically relevant changes
same,Tolerability,"[3]; daily oral dose of 20 mg, 40 mg or 60 mg for 28 days, healthy men aged 40-70 years",well tolerated
same,LH levels after E4 administration,"[3]; shortly after dosing, only for a few hours",decreased
same,Efficacy of ADT,[4],improves efficacy of ADT
same,Quality of life of the prostate cancer patients,[4],improves quality of life
same,Trough plasma level,[5]; daily oral dose 2 mg,198 pg/mL
same,Trough plasma level,[5]; daily oral dose 10 mg,1056 pg/mL
same,Trough plasma level,[5]; daily oral dose 20 mg,2187 pg/mL
same,Trough plasma level,[5]; daily oral dose 40 mg,4417 pg/mL
same,Trough plasma level,[5]; daily oral dose 60 mg,6157 pg/mL
